Test results: PubChem BioAssay (NCI)
Values joined by “and” are separate entries in the source; they are usually repeats but may differ in a detail not shown here. Identical values can stand only once.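 How tested: cells in 96-well plates exposed to compound for 48 hours at five concentrations. GI50 = concentration required for 50% inhibition of growth. TGI denotes the concentration required for complete inhibition of growth.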 *1 amine or outer side, *2 acyl side, *3 side chain or, on linkers, in order; H or OH if unused. Where a SMILES comes first, the peptide text is derived from it. Bridges are numbered along the chain shown (N, C = ends). [ ]: non-standard residue; d: D form. The star is where a group is joined. Phe(3-Me) = Cc1cccc(C[C@H](N)C(=O)O)c1; NH(4-Cl-2-F-phenyl) = Fc1cc(Cl)ccc1N*; Pro(4R-Me) = C[C@H]1CN[C@H](C(=O)O)C1; Propanoyl(3-NMe2) = CN(C)CCC(=O)*; Hyp = O=C(O)[C@@H]1C[C@@H](O)CN1; aThr = C[C@H](O)[C@H](N)C(=O)O; Pip = O=C(O)[C@@H]1CCCCN1; CO = O=C([*:1])[*:2]

Key:
Assay in all cases: inhibition of tumour cell growth, NCI panel, 48 h
HCT-15 colon = tested on: HCT-15 colon
MDA-MB-231 breast = tested on: MDA-MB-231 breast
NCI-H460 lung = tested on: NCI-H460 lung
RXF 393 renal = tested on: RXF 393 renal
SNB-19 CNS = tested on: SNB-19 CNS
SW-620 colon = tested on: SW-620 colon
UACC-257 melanoma = tested on: UACC-257 melanoma

Row | SMILES | GI50 (HCT-15 colon) | TGI (HCT-15 colon) | TGI (MDA-MB-231 breast) | GI50 (NCI-H460 lung) | TGI (NCI-H460 lung) | TGI (RXF 393 renal) | GI50 (SNB-19 CNS) | TGI (SNB-19 CNS) | GI50 (SW-620 colon) | TGI (SW-620 colon) | GI50 (UACC-257 melanoma) | GI50 (MDA-MB-231 breast) | GI50 (RXF 393 renal) | TGI (UACC-257 melanoma)
1 | S=C(N/N=C(/c1ccccc1)c1ccccn1)Nc1cccc(Cl)c1 | 0.142 µM | 5.06 µM | 2.27 µM | 0.612 µM | 4.69 µM | 2.51 µM and 3.86 µM | 0.786 µM | 15.3 µM | 0.0444 µM | 2.88 µM and 5.77 µM | 0.00172 µM | – | – | –
2 | COc1ccc(CNc2nc(NCc3ccc(OC)cc3)c3n[nH]c(C(C)C)c3n2)cc1 | 5.09 µM | 28.8 µM | 21.8 µM | 2.98 µM | 31.8 µM | > 100 µM | 4.46 µM | 23.1 µM | 3.27 µM | > 100 µM | 16.4 µM | 4.67 µM | 18.6 µM | 30.8 µM
3 | CCc1ccc(Nc2cc(C)nc3nc(C)nn23)cc1 | 32.8 µM | > 100 µM | > 100 µM | 71.1 µM | > 100 µM | > 100 µM | 53.4 µM | > 100 µM | > 100 µM | > 100 µM | > 100 µM | 31.4 µM | 19.3 µM | > 100 µM
4 | C/C(=N\NC(=O)c1ccncc1)c1ccc(O)cc1O | 4.83 µM | > 100 µM | > 100 µM | 5 µM | > 100 µM | > 100 µM | 5.29 µM | > 100 µM | 7.68 µM | > 100 µM | 4.06 µM | 3.88 µM | 12.2 µM | 88.5 µM
5 | Cc1cccc(C[C@H](NC(=O)Nc2ccc(Cl)cc2F)C(=O)N[C@@H]2C(=O)N3C[C@H](OC(=O)CCN(C)C)C[C@H]3C(=O)N3CCCC[C@H]3C(=O)N[C@@H](C)C(=O)N3C[C@H](C)C[C@H]3C(=O)O[C@H]2C)c1 ({NH(4-Cl-2-F-phenyl)-CO}-[Phe(3-Me)][aThr][Hyp](Propanoyl(3-NMe2))[Pip]A[Pro(4R-Me)]; ester 2-C) | 1.98 µM | 4.34 µM | 1.66 µM | 0.386 µM | 1.82 µM | 2.85 µM | 0.389 µM | 11.5 µM | 0.6 µM | 2.94 µM | 0.385 µM | 0.417 µM | 1.23 µM | 2.14 µM
6 | C=C(CN1CCN(c2cccc(F)c2)CC1)c1ccc(C(=O)Nc2ccccc2N)cc1 | 1.02 µM | > 100 µM | 4.27 µM | 3.95 µM | > 100 µM | 6.09 µM | 1.95 µM | > 100 µM | 2.53 µM | > 100 µM | 8.19 µM | 1.01 µM | 0.563 µM | 47.5 µM
7 | CN1CCCCC1CCN1c2ccccc2Sc2ccc(S(C)=O)cc21 (stereo unspecified) | – | > 100 µM | > 100 µM | – | > 100 µM | > 100 µM | – | > 100 µM | – | > 100 µM | – | – | – | > 100 µM
8 | O=c1cccc(C#CC#C/C=C/CO)o1 | 1.98 µM | 5.15 µM | 4.03 µM | 2.88 µM | – | 7.03 µM | 3.06 µM | 10.7 µM | 3.3 µM | > 24.9 µM | 2.07 µM | 1.87 µM | 2.38 µM | 4.7 µM
